Laboratory results: US10738057B2, “Tertiary alcohols as PI3K-γ inhibitors” (Incyte Corporation, priority 2017, dated 2020)
Where a name gives a salt, the structure may show the parent alone.

What was measured:
[1] = test system: Phosphorylated Ribosomal Protein S6 (RPS6) in THP-1 cells; test: THP-1 RPS6 ELISA assay; type: cell-based, Human; details: Homo sapiens, THP-1, read-out: PI3Kγ_THP1_RPS6_ELISA IC50 (nM)
Method: Example A. THP-1 RPS6 ELISA Assay
To measure the Phosphorylated Ribosomal Protein S6 (RPS6) in cell lysates, THP-1 cells (Human Acute Monocytic Leukemia) are purchased from ATCC (Manassas, Va.) and maintained in RPMI with 10% FBS (Gibco/Life Technologies, Carlsbad, Calif.). For the assay, THP-1 cells are serum starved overnight in RPMI, then plated in RPMI (2×10^5 cells/well in 90 μL) into 96-well flat-bottom tissue culture treated plates (Corning, Corning, N.Y.), in the presence or absence of a concentration range of test compounds. Covered plates are incubated for 2 hours at 37° C., 5% CO2 then treated with or without 10 nM MCP-1 (MYBioSource, San Diego, Calif.) for 15 minutes at 37° C., 5% CO2. Plates are centrifuged at 1600 RPM and supernatants are removed. Cells are lysed in Lysis Buffer (Cell Signaling, Danvers, Mass.) with Protease Inhibitor (Calbiochem/EMD, Germany), PMSF (Sigma, St Louis Mo.), HALTS (Thermo Fisher, Rockford, Ill.) for 30 min on wet ice. Cell lysates are frozen at −80° C. before testing. The lysates are tested in the Human/Mouse/Rat Phospho-RPS6 ELISA (R&D Systems, Inc. Minn, Minn.). The plate is measured using a microplate reader (SpectraMax M5—Molecular Devices, LLC Sunnyvale, Calif.) set to 450 nm with a wavelength correction of 540. IC50 determination is performed by fitting the curve of inhibitor percent inhibition versus the log of the inhibitor concentration using the GraphPad Prism 5.0 software.

[2] = target: PI3Kδ (p110δ/p85α) Recombinant Human Protein (Homo sapiens (Human), UniProt O00329); test: PI3Kδ scintillation proximity assay; type: biochemical; details: 20 μM PIP2, 2 μM ATP, 3.4 nM PI3Kδ, 120 min, room temperature; read-out: PI3Kδ IC50
Chain of PI3Kδ (p110δ/p85α) Recombinant Human Protein (O00329 whole entry): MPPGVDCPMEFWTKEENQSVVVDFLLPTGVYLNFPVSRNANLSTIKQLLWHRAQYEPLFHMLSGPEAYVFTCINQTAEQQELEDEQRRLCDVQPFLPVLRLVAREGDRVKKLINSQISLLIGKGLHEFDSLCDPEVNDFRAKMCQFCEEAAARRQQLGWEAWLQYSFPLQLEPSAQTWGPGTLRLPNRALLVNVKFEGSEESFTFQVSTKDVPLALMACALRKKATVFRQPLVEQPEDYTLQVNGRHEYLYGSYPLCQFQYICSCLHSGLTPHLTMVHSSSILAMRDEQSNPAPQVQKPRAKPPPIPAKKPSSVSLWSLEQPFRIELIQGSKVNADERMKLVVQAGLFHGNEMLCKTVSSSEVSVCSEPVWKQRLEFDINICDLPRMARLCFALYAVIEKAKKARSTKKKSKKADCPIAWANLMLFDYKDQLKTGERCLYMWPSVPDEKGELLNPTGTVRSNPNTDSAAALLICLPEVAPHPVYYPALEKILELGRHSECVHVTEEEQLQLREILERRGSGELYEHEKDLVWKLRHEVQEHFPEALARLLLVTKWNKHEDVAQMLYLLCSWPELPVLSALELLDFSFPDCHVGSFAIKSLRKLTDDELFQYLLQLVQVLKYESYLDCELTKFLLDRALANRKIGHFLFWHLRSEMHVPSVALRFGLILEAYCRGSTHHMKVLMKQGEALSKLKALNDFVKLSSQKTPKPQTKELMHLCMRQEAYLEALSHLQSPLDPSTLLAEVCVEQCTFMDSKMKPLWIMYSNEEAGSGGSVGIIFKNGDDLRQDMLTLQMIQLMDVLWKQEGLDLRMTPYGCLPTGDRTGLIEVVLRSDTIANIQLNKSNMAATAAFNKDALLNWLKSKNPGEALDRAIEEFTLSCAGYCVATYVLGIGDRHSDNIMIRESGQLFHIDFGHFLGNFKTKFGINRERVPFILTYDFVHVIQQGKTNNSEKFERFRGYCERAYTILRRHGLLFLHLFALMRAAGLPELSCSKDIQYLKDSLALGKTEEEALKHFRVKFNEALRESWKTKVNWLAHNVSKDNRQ
Chain of PI3Kδ (p110δ/p85α) Recombinant Human Protein (P27986 whole entry partner): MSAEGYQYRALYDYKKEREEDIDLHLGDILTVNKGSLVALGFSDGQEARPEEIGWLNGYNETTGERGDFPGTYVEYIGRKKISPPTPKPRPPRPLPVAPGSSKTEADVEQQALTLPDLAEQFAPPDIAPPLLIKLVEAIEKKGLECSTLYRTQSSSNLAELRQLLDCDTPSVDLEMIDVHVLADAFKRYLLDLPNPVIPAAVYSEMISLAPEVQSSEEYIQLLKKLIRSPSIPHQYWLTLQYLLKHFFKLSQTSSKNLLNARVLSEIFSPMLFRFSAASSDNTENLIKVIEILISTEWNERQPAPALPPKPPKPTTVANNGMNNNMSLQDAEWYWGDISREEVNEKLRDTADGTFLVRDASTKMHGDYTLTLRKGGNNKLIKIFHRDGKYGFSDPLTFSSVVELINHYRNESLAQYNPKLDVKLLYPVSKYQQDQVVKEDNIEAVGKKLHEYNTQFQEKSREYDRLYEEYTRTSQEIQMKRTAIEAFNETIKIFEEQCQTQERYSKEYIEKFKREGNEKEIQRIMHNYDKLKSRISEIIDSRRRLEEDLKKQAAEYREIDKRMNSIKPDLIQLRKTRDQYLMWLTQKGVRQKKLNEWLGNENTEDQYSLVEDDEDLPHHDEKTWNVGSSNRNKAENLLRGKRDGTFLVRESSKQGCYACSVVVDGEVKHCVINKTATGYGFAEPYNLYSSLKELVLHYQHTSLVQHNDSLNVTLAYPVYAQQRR
Method: PI3Kδ Scintillation Proximity Assay
[γ-^33P]ATP (10 mCi/mL) and Wheat Germ Agglutinin (WGA) YSi SPA Scintillation Beads was purchased from PerkinElmer (Waltham, Mass.). […] PI3Kδ (p110δ/p85α) Recombinant Human Protein was purchased from Eurofins (St Charles, Mo.). ATP, MgCl2, DTT, EDTA, MOPS and CHAPS were purchased from SigmaAldrich (St. Louis, Mo.).
The kinase reaction was conducted in polystyrene 384-well Greiner Bio-one white plate from Thermo Fisher Scientific in a final volume of 25 μL. Inhibitors were first diluted serially in DMSO and added to the plate wells before the addition of other reaction components. The final concentration of DMSO in the assay was 2%. The PI3Kδ assay was carried out at room temperature in 20 mM MOPS, pH 6.7, 10 mM MgCl2, 5 mM DTT and CHAPS 0.03%. Reactions were initiated by the addition of ATP, the final reaction mixture consisted of 20 μM PIP2, 2 μM ATP, 0.5 μCi [γ-^33P] […] The final concentration of SPA beads is 1.0 mg/mL. After the plate sealing, plates were shaken overnight at room temperature and centrifuged at 1500 rpm for 10 min, the radioactivity of the product was determined by scintillation counting on Topcount (PerkinElmer). IC50 determination was performed by fitting the curve of percent of the solvent control activity versus the log of the inhibitor concentration using the GraphPad Prism 6.0 software.

[3] = target: PI3Kγ (p110γ) Recombinant Human Protein (Homo sapiens (Human), UniProt P48736); test: PI3K-γ scintillation proximity assay; type: biochemical; details: 20 μM PIP2, 2 μM ATP, 13 nM PI3Kγ, 120 min, room temperature
Chain of PI3Kγ (p110γ) Recombinant Human Protein (P48736 whole entry): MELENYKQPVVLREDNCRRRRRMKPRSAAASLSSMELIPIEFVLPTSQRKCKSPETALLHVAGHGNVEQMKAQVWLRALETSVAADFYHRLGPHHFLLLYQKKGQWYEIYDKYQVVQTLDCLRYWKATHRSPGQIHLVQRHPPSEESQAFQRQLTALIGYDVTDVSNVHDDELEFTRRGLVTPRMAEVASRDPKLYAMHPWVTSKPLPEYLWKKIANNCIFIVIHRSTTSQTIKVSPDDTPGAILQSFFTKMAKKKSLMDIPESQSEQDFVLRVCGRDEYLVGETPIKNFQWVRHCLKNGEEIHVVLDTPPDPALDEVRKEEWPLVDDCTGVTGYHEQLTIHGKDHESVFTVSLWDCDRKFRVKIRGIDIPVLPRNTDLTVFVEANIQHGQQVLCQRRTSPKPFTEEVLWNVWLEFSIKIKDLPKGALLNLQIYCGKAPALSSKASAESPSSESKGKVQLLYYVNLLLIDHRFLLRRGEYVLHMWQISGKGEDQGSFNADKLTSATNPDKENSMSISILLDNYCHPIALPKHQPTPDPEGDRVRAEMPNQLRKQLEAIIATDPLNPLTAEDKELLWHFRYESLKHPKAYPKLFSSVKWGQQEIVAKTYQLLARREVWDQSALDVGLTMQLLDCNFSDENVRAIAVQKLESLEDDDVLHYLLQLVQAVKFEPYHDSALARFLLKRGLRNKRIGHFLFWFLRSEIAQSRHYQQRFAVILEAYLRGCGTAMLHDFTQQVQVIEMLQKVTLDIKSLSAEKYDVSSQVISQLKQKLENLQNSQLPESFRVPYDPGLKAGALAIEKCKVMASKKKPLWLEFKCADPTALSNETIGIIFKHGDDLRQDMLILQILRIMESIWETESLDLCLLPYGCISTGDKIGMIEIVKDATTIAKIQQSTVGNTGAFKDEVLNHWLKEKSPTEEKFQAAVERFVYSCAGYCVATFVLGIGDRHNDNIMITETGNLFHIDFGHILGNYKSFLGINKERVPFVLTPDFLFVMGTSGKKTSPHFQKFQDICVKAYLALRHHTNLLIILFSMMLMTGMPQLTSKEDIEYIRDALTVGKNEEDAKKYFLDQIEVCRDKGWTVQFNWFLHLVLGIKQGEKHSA
From the text: Example B. PI3K-γ Scintillation Proximity Assay
[γ-^33P]ATP (10 mCi/mL) and Wheat Germ Agglutinin (WGA) YSi SPA Scintillation Beads was purchased from PerkinElmer (Waltham, Mass.). Lipid kinase substrate, D-myo-Phosphatidylinositol 4,5-bisphosphate (PtdIns(4,5)P2)D (+)-sn-1,2-di-O-octanoylglyceryl, 3-O-phospho linked (PIP2), CAS 204858-53-7, was purchased from Echelon Biosciences (Salt Lake City, Utah). PI3Kγ (p110γ) Recombinant Human Protein was purchased from Life technology (Grand Island, N.Y.). ATP, MgCl2, DTT, EDTA, MOPS and CHAPS were purchased from SigmaAldrich (St. Louis, Mo.).
The kinase reaction was conducted in polystyrene 384-well Greiner Bio-one white plate from Thermo Fisher Scientific in a final volume of 25 μL. Inhibitors were first diluted serially in DMSO and added to the plate wells before the addition of other reaction components. The final concentration of DMSO in the assay was 2%. The PI3Kγ assay was carried out at room temperature in 20 mM MOPS, pH 6.7, 10 mM MgCl2, 5 mM DTT and CHAPS 0.03%. Reactions were initiated by the addition of ATP, the final reaction mixture consisted of 20 μM PIP2, 2 μM ATP, 0.5 μCi [γ-^33P] ATP, 13 nM PI3Kγ. Reactions were incubated for 120 min and terminated by the addition of 40 μL SPA beads suspended in quench buffer: 163 mM potassium phosphate pH 7.8, 20% glycerol, 25 mM EDTA. The final concentration of SPA beads is 1.0 mg/mL. After the plate sealing, plates were shaken overnight at room temperature and centrifuged at 1500 rpm for 10 min, the radioactivity of the product was determined by scintillation counting on Topcount (Perkin-Elmer). IC50 determination was performed by fitting the curve of percent of the solvent control activity versus the log of the inhibitor concentration using the GraphPad Prism 6.0 software.

| Compound | IC50 [1] [nM] | IC50 [2] [nM] | IC50 [3] [nM] |
| --- | --- | --- | --- |
| Cc1ccc(C(O)(CO)C(F)(F)F)cc1-c1cnc2c(N)nc(-c3cnn(C)c3)cn12 (racemic) [Example 69, 2-(3-(8-Amino-6-(1-methyl-1H-pyrazol-4-yl)imidazo[1,2-a]pyrazin-3-yl)-4-methylphenyl)-3,3,3-trifluoropropane-1,2-diol trifluoroacetate salt] | < 100 |  |  |
| CCOC(=O)C1CC1c1cn2c(-c3cc(C(C)(O)C(F)F)ccc3C)cnc2c(N)n1 (single isomer, unassigned) [Example 74, Ethyl 2-(8-amino-3-(5-(1,1-difluoro-2-hydroxypropan-2-yl)-2-methylphenyl)imidazo[1,2-a]pyrazin-6-yl)cyclopropane-1-carboxylate trifluoroacetate salt] |  | 500 to 2000 | 500 to 2000 |
| Cc1ccc(C(C)(O)C(F)F)cc1-c1cnc2c(N)nc(C3CC3CO)cn12 (single isomer, unassigned) [Example 80, 2-(3-(8-Amino-6-(2-(hydroxymethyl)cyclopropyl)imidazo[1,2-a]pyrazin-3-yl)-4-methylphenyl)-1,1-difluoropropan-2-ol] |  | 500 to 2000 | < 100 |
| Cc1ccc(C(C)(O)C(F)(F)F)cc1-c1cnc2c(N)ncnn12 (stereo not drawn) [Example 3, 2-(3-(4-Aminoimidazo[2,1-f][1,2,4]triazin-7-yl)-4-methylphenyl)-1,1,1-trifluoropropan-2-ol] |  | 500 to 2000 | < 100 |
| Cc1cn2c(-c3cc(C(C)(O)C(F)(F)F)ccc3C)cnc2c(N)n1 (stereo not drawn) [Example 7, 2-(3-(8-Amino-6-methylimidazo[1,2-a]pyrazin-3-yl)-4-methylphenyl)-1,1,1-trifluoropropan-2-ol] |  | 100 to 500 | < 100 |
| Cc1ccc(C(O)(CCNC2CCOCC2)C(F)(F)F)cc1-c1cnc2c(N)nc(C(F)(F)F)cn12 (stereo not drawn) [Example 17, 2-(3-(8-Amino-6-(trifluoromethyl)imidazo[1,2-a]pyrazin-3-yl)-4-methylphenyl)-1,1,1-trifluoro-4-((tetrahydro-2H-pyran-4-yl)amino)butan-2-ol bis(2,2,2-trifluoroacetate)] |  | 500 to 2000 | < 100 |
| Cc1ccc(C(C)(O)C(F)F)cc1-c1cnc2c(N)nc(-c3cncnc3)cn12 (stereo not drawn) [Example 32, 2-(3-(8-Amino-6-(pyrimidin-5-yl)imidazo[1,2-a]pyrazin-3-yl)-4-methylpheny1)-1,1-difluoropropan-2-ol] |  | 500 to 2000 | < 100 |
| Cc1ccc(C(C)(O)C(F)F)cc1-c1cnc2c(N)nc(N3CCC(C#N)CC3)cn12 (stereo not drawn) [Example 64, 1-(8-Amino-3-(5-(1,1-difluoro-2-hydroxypropan-2-yl)-2-methylphenyl)imidazo[1,2-a]pyrazin-6-yl)piperidine-4-carbonitrile] |  | 500 to 2000 | < 100 |
| Cc1ccc(C(C)(O)C(F)(F)F)cc1-c1cnc2c(N)nc(N3CCC(O)CC3)cn12 (stereo not drawn) [Example 65, 1-(8-Amino-3-(2-methyl-5-(1,1,1-trifluoro-2-hydroxypropan-2-yl)phenyl)imidazo[1,2-a]pyrazin-6-yl)piperidin-4-ol] |  | 100 to 500 | < 100 |
| Cc1ccc(C(C)(O)C(F)F)cc1-c1cnc2c(N)nc(C3CC3C(=O)N3CCN(C)CC3)cn12 (stereo not drawn) [Example 77, (2-(8-Amino-3-(5-(1,1-difluoro-2-hydroxypropan-2-yl)-2-methylphenyl)imidazo[1,2-a]pyrazin-6-yl)cyclopropyl)(4-methylpiperazin-1-yl)methanone trifluoroacetate salt] |  | 100 to 500 | < 100 |
| Cc1ccc(C(C)(O)C(F)(F)F)cc1-c1cnc2c(N)nc(CC(=O)N(C)C)cn12 (stereo not drawn) [Example 169, 2-(8-amino-3-(2-methyl-5-(1,1,1-trifluoro-2-hydroxypropan-2-yl)phenyl)imidazo[1,2-a]pyrazin-6-yl)-N,N-dimethylacetamide trifluoroacetate salt] |  | 500 to 2000 | 100 to 500 |
| Cc1ccc(C(C)(O)C(F)(F)F)cc1-c1cnc2c(N)nc(CC(=O)N3CCOCC3)cn12 (stereo not drawn) [Example 173, 2-(8-amino-3-(2-methyl-5-(1,1,1-trifluoro-2-hydroxypropan-2-yl)phenyl)imidazo[1,2-a]pyrazin-6-yl)-1-morpholinoethanone trifluoroacetate salt] |  | 500 to 2000 | 100 to 500 |
| CC(=O)NCC(O)(c1ccc(C)c(-c2cnc3c(N)nc(C(F)(F)F)cn23)c1)C(F)(F)F (stereo not drawn) [Example 211, N-(2-(3-(8-amino-6-(trifluoromethyl)imidazo[1,2-a]pyrazin-3-yl)-4-methylphenyl)-3,3,3-trifluoro-2-hydroxypropyl)acetamide trifluoroacetate] |  | 100 to 500 | < 100 |
| Cc1ccc(C(O)(CNC(=O)c2ccccc2)C(F)(F)F)cc1-c1cnc2c(N)nc(C(F)(F)F)cn12 (stereo not drawn) [Example 212, N-(2-(3-(8-amino-6-(trifluoromethyl)imidazo[1,2-a]pyrazin-3-yl)-4-methylphenyl)-3,3,3-trifluoro-2-hydroxypropyl)benzamide trifluoroacetate salt] |  | 100 to 500 | < 100 |
| CCNC(=O)c1cn2c(-c3cc(C(O)(CNC(C)=O)C(F)(F)F)ccc3C)cnc2c(N)n1 (stereo not drawn) [Example 221, 3-(5-(3-acetamido-1,1,1-trifluoro-2-hydroxypropan-2-yl)-2-methylphenyl)-8-amino-N-ethylimidazo[1,2-a]pyrazine-6-carboxamide trifluoroacetate] |  | 100 to 500 | < 100 |
| Cc1ccc(C(C)(O)C(F)(F)F)cc1-c1cnc2c(N)nc(C(=O)NC34CCN(CC3)C4)cn12 (stereo not drawn) [Example 277, 8-Amino-N-(1-azabicyclo[2.2.1]heptan-4-yl)-3-(2-methyl-5-(1,1,1-trifluoro-2-hydroxypropan-2-yl)phenyl)imidazo[1,2-a]pyrazine-6-carboxamide trifluoroacetate salt] |  | 100 to 500 | 100 to 500 |
| Cc1ccc(C(C)(O)C(F)(F)F)cc1-c1cnc2c(N)nc(C(=O)NC34COC(CO)(C3)C4)cn12 (stereo not drawn) [Example 279, 8-Amino-N-(1-(hydroxymethyl)-2-oxabicyclo[2.1.1]hexan-4-yl)-3-(2-methyl-5-(1,1,1-trifluoro-2-hydroxypropan-2-yl)phenyl)imidazo[1,2-a]pyrazine-6-carboxamide trifluoroacetate salt] |  | 100 to 500 | < 100 |
